Measured values: patent US20140205654A1, “LIPOSOMAL VANCOMYCIN FOR THE TREATMENT OF MRSA INFECTIONS” (CEDARS-SINAI MEDICAL CENTER, priority 2011, published 2014)
Values after ≈ are worked out from the molar mass of the structure shown.

Tests used:
Assay type in all cases: cell-based
[1] = system: MRSA 78; assay: MIC by broth dilution; details: Staphylococcus aureus, 24 h, read-out: Vancomycin MIC
Experimental: (§1) The MICs of free and liposomal antibiotics for all strains were determined by the broth dilution technique. Briefly, serial dilutions of free- or liposome-encapsulated antibiotic from 20 to 0.3 μg/ml were prepared. For bacterial suspensions, frozen stocks of MRSA were streaked on sheep blood agar plates. Single colonies were inoculated into fresh media and shaken for 20 hr at 37° C. The overnight bacteria were diluted and added to 96-well plates (Becton Dickinson) to achieve an approximate concentration of 1×10^5. The inocula were confirmed by plating on agar. The 96-well plates were then incubated with or without shaking at 37° C., and the lowest concentration of antibiotic formulations that inhibited visible growth of bacteria was determined after 24 hours (MIC). Incubation of the plates with shaking (at 200 rpm) increased the consistency of MIC measurement for the liposomal preparations. For determination of MBC, the broths used for MIC determination were plated on agar, and the first dilution at which 99.9% of the original inocula were killed was identified. All MIC and MBC assays were performed at least three times.

[2] = system: MRSA 79; assay: MIC by broth dilution; details: Staphylococcus aureus, 24 h, read-out: Vancomycin MIC
Experimental: as §1

[3] = system: MRSA 80; assay: MIC by broth dilution; details: Staphylococcus aureus, 24 h, read-out: Vancomycin MIC
Experimental: as §1

[4] = system: MRSA 81; assay: MIC by broth dilution; details: Staphylococcus aureus, 24 h, read-out: Vancomycin MIC
Experimental: as §1

[5] = system: MRSA 82; assay: MIC by broth dilution; details: Staphylococcus aureus, 24 h, read-out: Vancomycin MIC
Experimental: as §1

[6] = system: MRSA 83; assay: MIC by broth dilution; details: Staphylococcus aureus, 24 h, read-out: Vancomycin MIC
Experimental: as §1

[7] = system: MRSA strain ATCC 43300; assay: MIC by broth dilution; details: Staphylococcus aureus, 24 h, read-out: Vancomycin MIC
Experimental: as §1

[8] = system: MRSA strain LAC; assay: MIC by broth dilution; details: Staphylococcus aureus, 24 h, read-out: Vancomycin MIC
Experimental: as §1

[9] = system: MRSA strain NRS-35; assay: MIC by broth dilution; details: Staphylococcus aureus, 24 h, read-out: Vancomycin MIC
Experimental: as §1

[10] = system: MRSA strain LAC; assay: MBC determination; details: Staphylococcus aureus, read-out: Vancomycin MBC
Experimental: as §1

[11] = system: MRSA strain NRS-35; assay: MBC determination; details: Staphylococcus aureus, read-out: Vancomycin MBC
Experimental: as §1

CN[C@H](CC(C)C)C(=O)N[C@H]1C(=O)N[C@@H](CC(N)=O)C(=O)N[C@H]2C(=O)N[C@H]3C(=O)N[C@H](C(=O)N[C@H](C(=O)O)c4cc(O)cc(O)c4-c4cc3ccc4O)[C@H](O)c3ccc(c(Cl)c3)Oc3cc2cc(c3O[C@@H]2O[C@H](CO)[C@@H](O)[C@H](O)[C@H]2O[C@H]2C[C@](C)(N)[C@H](O)[C@H](C)O2)Oc2ccc(cc2Cl)[C@H]1O [Free Vancomycin, Vancomycin]
MIC [1]: 1.25 µg/mL (≈ 0.863 µM)
MIC [2]: 1.25 µg/mL (≈ 0.863 µM)
MIC [3]: 1.25 µg/mL (≈ 0.863 µM)
MIC [4]: 1.25 µg/mL (≈ 0.863 µM)
MIC [5]: 2.5 µg/mL (≈ 1.73 µM)
MIC [6]: 1.25 µg/mL (≈ 0.863 µM)
MIC [7]: 1.25 to 2.5 µg/mL (≈ 0.863 to 1.73 µM)
MIC [8]: 1.25 to 2.5 µg/mL (≈ 0.863 to 1.73 µM)
MIC [9]: 2.5 µg/mL (≈ 1.73 µM)
MBC [10]: 2.5 µg/mL (≈ 1.73 µM)
MBC [11]: 2.5 to 5 µg/mL (≈ 1.73 to 3.45 µM)
